The text below walks through data of a melting point compilation (Tetko et al.; mined from patent text by program, amines drawn as free bases though some values may be those of a salt).

Some results are limits rather than exact numbers.

Regarding `CCCc1c(COc2ccc(Cc3nnn(Cc4ccc(-c5nnn[nH]5)cc4)n3)cc2)ccc(C(C)=O)c1O`, the melting point was in the range of 86 to 88 °C.

For the molecule `C[C@H](Nc1ncnc2[nH]cnc12)c1oc2ccccc2c(=O)c1-c1ccccc1`, the melting point fell in the range of 135 to 138 °C.

The molecule `c1ccc(-c2nc(COc3cccc(CCCn4ccnc4)c3)co2)cc1` gave a melting point of 62 to 63 °C.

As for `COC(OC)C(C)(O)c1cnc(C=O)s1` (stereo unspecified), the melting point is 98 to 99 °C.

`CC(CS)C(=O)N1C(C(=O)O)CC2CCCCC21` (stereo unspecified) came in with a melting point of 141 to 142 °C.

Consider `CN1C(=S)CSC=C1c1ccccc1`, for which the melting point is 83 to 85 °C.

Regarding `CC(=O)c1ccc2c(c1)ncn2-c1cccc(C(=NOC(C)C)OC2CCCN(C)C2)c1` (stereo unspecified), the melting point lay in the range of 104 to 106 °C.

Regarding `OC(COCc1ncc[nH]1)c1ccc2sccc2c1` (stereo unspecified), the melting point was in the range of 128 to 129 °C.

Molecule `O=C1OC(=O)c2c3cc(Cl)ccc3cc3cccc1c23` showed a melting point of 325 to 327 °C.

Consider `Cc1ccccc1NC(=O)CN1CCN(c2ncccc2C#N)CC1`, for which the melting point was in the range of 123 to 125 °C.

For the molecule `CC(=O)Nc1nc2c(Oc3cc(-c4ccc(C(F)(F)F)nc4N(C)CC4CCCCN4CC(C)C)ncn3)cccc2s1` (stereo unspecified), the melting point is 123 to 125 °C.

In turn, `CCCCCCOc1ccc(N=C(NC#N)NCCC(C)(C)C)cc1` had a melting point of 183 to 184 °C.

Take `CCN1C(=O)C(C)(C)C(=O)N(C)c2cc(CN(CCn3ccc4oc(C)cc4c3=O)Cc3ccccc3-n3cccn3)ccc21`: the melting point is 123 to 130 °C.

Regarding `Cc1ccnc(-c2cc(C)cc(C#N)n2)c1`, the melting point turned out to be 132 °C.

The molecule `CCc1nnc(-c2ccc3occ(-c4ccc(SC)cc4)c3c2)o1` returned a melting point of 164 to 165 °C.

Turning to `Oc1cccc2c1CCC(N(CCCF)CCc1cccs1)C2` (stereo unspecified), the melting point was 105 to 109 °C.

`Cc1nc[nH]c1CSCCNC(=N)NC#N` yielded a melting point of 125 to 127 °C.

Regarding `CCN1C(=O)CCCc2cc(Nc3ncc(Cl)c(Nc4ccccc4S(=O)(=O)C(C)C)n3)c(OC)cc21`, the melting point fell in the range of 195 to 197 °C.

Molecule `Nc1ncnc2c1ncn2OCC(O)CCP(=O)(O)O` (stereo unspecified) registered a melting point of 265 to 267 °C.

Regarding `[O-][N+](=Cc1ccc(OCc2ccccc2)cc1)C1CCCC1`, the melting point turned out to be 115 °C.

With `CS(=O)(=O)c1ccc(C=C2/C(=N/O)CCc3ccccc32)cc1`, the melting point fell in the range of 165 to 166 °C.

`CCCCNS(=O)(=O)CC(O)C(O)C(CC1CCCCC1)NC(=O)c1ccccc1` (stereo unspecified) gave a melting point of 153 to 155 °C.

For the molecule `N#Cc1nccnc1Oc1cccc(C(F)(F)F)c1`, the melting point is 68 to 70 °C.

`O=C(NCCNC(c1ccccc1)(c1ccccc1)c1ccccc1)C(CCO)NC(c1ccccc1)(c1ccccc1)c1ccccc1` (stereo unspecified) showed a melting point of 71 to 72 °C.

Take `CC1=C(C)C(=O)C(CCCCCC2=C(C)C(=O)C(C)=C(C)C2=O)=C(C)C1=O`: the melting point stood at 138 °C.

The molecule `COc1ccc2sc(C(=O)O)c(Oc3ccccc3)c2c1` returned a melting point of 197 °C.

Turning to `O=C(Nc1cccc(-c2ccc(C(=O)O)cc2)c1)OCC1c2ccccc2-c2ccccc21`, the melting point lay within 110 to 112 °C.

As for `Clc1ccc2c(c1)N=Cc1ccccc1O2`, the melting point was 73 to 73.5 °C.

For `CN1Cc2cccnc2N(c2cccc(C(F)(F)F)c2)C1=O`, the melting point was in the range of 122 to 124 °C.

For the molecule `CN(C)Cc1c(-c2ccc3sc(=O)n(C)c3c2)nc2ccccn12`, the melting point lay in the range of 137 to 140 °C.

Consider `CC(C)(C)OC(=O)N1CCO[C@@H]2Cc3c(O)cccc3C[C@H]21`, for which the melting point lay within 203 to 205 °C.

In turn, `CCOC(=O)C=Cc1cnn2c(N(C)c3ccccc3)ncnc12` gave a melting point of 139 °C.

Molecule `CCS(=O)(=O)Nc1cc(-n2ncc(=O)n(C)c2=O)c(F)cc1C#N` returned a melting point of 233 °C.

Regarding `COc1ccc(CNC(=O)c2cc([N+](=O)[O-])ccc2NC2CC=CCC2)cc1F` (stereo unspecified), the melting point came out at 140 °C.

`CC(N)Cn1ncc2ccc3c(c21)CC(O)CO3` (stereo unspecified) displayed a melting point of 46 to 51 °C.

Take `Cc1oc(-c2ccccc2)nc1CCc1ccc(/C=C/C=C/C=C2OC(=O)NC2=O)cc1`: the melting point lay in the range of 208 to 210 °C.

For the molecule `Cn1c(OCC(CO)CO)nc2c(NC(=O)c3ccccc3)ncnc21`, the melting point was in the range of 151 to 153 °C.

Regarding `CC(=O)Nc1ccc2c3c1c(=O)c(C(=O)O)cn3C(C)CC2` (stereo unspecified), the melting point is 277 to 279 °C.

As to `Cn1c(-c2ccccc2F)nnc1S(C)=O` (stereo unspecified), the melting point was 95 to 97 °C.

`CONCc1nc2c(N)nc(C)c(C)c2n1CC(C)C` returned a melting point of 154 to 156 °C.

As to `Cn1c(N2CCOCC2)nc(C(=O)NCc2ccc(F)c(Cl)c2)c(O)c1=O`, the melting point lay within 170 to 171 °C.

For the molecule `CCOC(CNC(=O)N(N=Cc1ccccc1)c1cc(Cl)c(Cc2ccc(Cl)cc2)c(Cl)c1)OCC`, the melting point fell in the range of 138 to 139 °C.

Take `O=S(=O)(Cl)C=Cc1ccc(C2CCCCC2)c(Br)c1`: the melting point lay in the range of 93 to 97 °C.

For the molecule `CC1=C(CC(=O)O)c2cc(F)ccc2C1`, the melting point was 164 to 166 °C.

As to `COc1ccc2c(c1)CCC1CCN(C)C(=O)C(CC3(C)OCCO3)=C21` (stereo unspecified), the melting point fell in the range of 112 to 115 °C.

As to `CSc1ncc2cc(C)c(=O)[nH]c2n1`, the melting point lay within 243 to 245 °C.

Molecule `Cc1ccc(Cl)cc1N1C(=O)C(=O)N(C)C1=S` returned a melting point of 171 to 173 °C.

Molecule `CCOC(=O)C(C)=NN(C)c1ccc(C(F)(F)F)cc1` gave a melting point of 71 to 72 °C.

`COc1cccc(CC(=O)Nc2ccc3sc(C)nc3c2Cl)c1` yielded a melting point of 147 to 148 °C.

`COC(=O)CCC/C=C/c1ccc2cc(C)ccc2c1` showed a melting point of 50 °C.

Regarding `CC(C)(C(=O)O)C1([N+](=O)[O-])OC2=CC=CC2=CC1c1ccccc1` (stereo unspecified), the melting point fell in the range of 256 to 258 °C.

The molecule `CCOCc1nc2c(N)nc3cc(Cl)ccc3c2n1CC(C)(C)O` registered a melting point of 238 to 240 °C.

Consider `CCOC(=O)N1CCc2[nH]c(=O)n3nc(-c4ccccc4F)nc3c2C1`, for which the melting point was in the range of 307 to 311 °C.

Turning to `CCN1CCN(c2ccc(NC(=O)Nc3ccc(Oc4cc(Cl)ncn4)cc3)cc2OC)CC1`, the melting point fell in the range of 170 to 171 °C.

Consider `O=C(O)c1cc(O)cc2cc(-c3ccc(O)cc3)oc12`, for which the melting point was 260 to 262 °C.

Regarding `CCN1C(=O)CC(C)(C)c2ccc(-c3nc4ccccc4[nH]3)cc21`, the melting point was 257 to 259 °C.

As to `CN(C)C(c1ccccc1Cl)C1CCCCC1(O)c1ccc2ccccc2c1` (stereo unspecified), the melting point is greater than 230 °C.

Molecule `O=C(O)C1Cc2cccc(-c3ccccc3)c2C1` (stereo unspecified) returned a melting point of 97 to 102 °C.

`CC(C)(NC(=O)CNC(=O)c1ccccc1)c1ccccc1` displayed a melting point of 156 to 157 °C.

`Nc1ncnc2c1ncn2Cc1ccccc1` came in with a melting point of 231 to 232 °C.

For `CCOc1cc(Cc2cnc(N)nc2N)cc(OCC)c1N`, the melting point lay in the range of 192 to 194 °C.

The molecule `COc1ccc(-c2nnc(Nc3ccc(Cl)c(Cl)c3)s2)cc1OCc1ccccc1` had a melting point of 223 to 224 °C.

On to `COC(=O)Oc1cc(NC(=O)OCc2ccccc2)c(F)cc1Cl`, for which the melting point was 70 to 72 °C.

In the case of `CCOC(=O)/C(=C/c1ccccc1)OC(C)=O`, the melting point fell in the range of 41 to 47 °C.

Molecule `CCC1CCC(CCc2ccccc2NC(=O)C=Cc2ccccc2)N(C)C1` (stereo unspecified) showed a melting point of 91 to 98 °C.

For the molecule `CC(C)(C)C(=O)ON1C(C)(C)CC(OC(=O)CCCCCCCCC(=O)OC2CC(C)(C)N(OC(=O)C(C)(C)C)C(C)(C)C2)CC1(C)C`, the melting point lay in the range of 93 to 97 °C.

Consider `CCc1nc(-c2cccc(C)c2)c(-c2ccnc(NC(=O)C3CCCCC3)c2)s1`, for which the melting point lay within 98 to 100 °C.

`COc1cc(C(O)c2ccc3ccccc3c2)ccc1OCc1ccccc1` (stereo unspecified): the melting point was in the range of 113 to 114 °C.

In turn, `COC(=O)C1=C(O)c2c(c3cc(C)ccc3n2C)S(=O)(=O)N1C` had a melting point of 144 to 145 °C.

`CCOC(=O)CC(=O)c1cccc(-n2ccnn2)c1`: the melting point is 72 to 74 °C.

The molecule `Cc1c(NC(=O)CC(C)(C)C)cc2c(c1C)OC(C)(C)C2(O)c1ccc2ccccc2c1` (stereo unspecified) gave a melting point of 142 to 144 °C.

On to `Clc1cc(Br)c2c(c1)OCCO2`, for which the melting point is 56.5 to 58 °C.

Take `COC(=O)c1cc[nH]c1`: the melting point lay within 78 to 81 °C.

The molecule `COC(=O)C(C(C)=O)=C(N)C(F)(F)F` registered a melting point of 63 to 65 °C.

Turning to `COC(=O)c1ccc(S(C)(=O)=O)c(-c2ccon2)c1Cl`, the melting point is 145 to 147 °C.

`C[C@H]1CCCN(C(=O)[C@@H]2Cc3cc(-c4ccccc4)ccc3N2c2ccc(=O)n(C)n2)C1` gave a melting point of 204 to 206 °C.

`COc1ccc(/C=C/C(=O)/C=C/C(=O)O)c(OC)c1` came in with a melting point of 195 to 200 °C.

For the molecule `COc1ccc(/C(=C/C=C/C(=O)O)C2CCCCC2)cc1`, the melting point is 130 to 132 °C.

For `OCc1ccc(-c2ccc(OC3SCC(O)C(O)C3O)cn2)cc1` (stereo unspecified), the melting point stood at 215 °C.

Take `CN(C(=O)c1ccc2nonc2c1)C1CCN(S(C)(=O)=O)CC1`: the melting point was in the range of 177 to 179 °C.

The molecule `N#CN=C(NCc1ccccc1)Nc1cccnc1` returned a melting point of 189 to 190 °C.

`CC1C(=O)N(c2ccc(S(C)(=O)=O)cc2)N=C1N` (stereo unspecified) yielded a melting point of 239 to 240 °C.

`Cc1ccc(-c2c(N(C)C(=O)OC(C)(C)C)n(CC(C)C)c(=O)c3ccc(OCc4ccccc4)cc23)cc1`: the melting point turned out to be 164 °C.

`CC(C)c1cc(C(=O)Nc2ccc(C(=O)O)c(F)c2)sc1C(C)C` came in with a melting point of 133 to 135 °C.

Consider `O=C1c2c(cc(O)c(Cl)c2Cl)CC1(c1ccccc1)C1CCCC1` (stereo unspecified), for which the melting point was 161 to 170 °C.

`COc1cc2ncc(C#N)c(Nc3ccc4ncccc4c3)c2cc1OC` came in with a melting point of 241 to 243 °C.

On to `Cn1cc(-c2cccc(F)c2)c(C(=O)NCCNC(=O)OC(C)(C)C)n1`, for which the melting point was 124 °C.

For the molecule `Cc1sc(-c2cnc3ccccc3c2)nc1O`, the melting point fell in the range of 279 to 280 °C.

In turn, `Nc1cccc(Cc2ccccc2)n1` yielded a melting point of 50.7 °C.

`O=C1NC(=S)NC1=Cc1cc(O)c(O)c([N+](=O)[O-])c1` returned a melting point greater than 350 °C.

As to `CC1(C)Cc2c(c(N3CCCC3)nc3sc4c(NCc5cccnc5)ncnc4c23)CO1`, the melting point fell in the range of 289 to 290 °C.
